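GI50 marks 50% less growth. Definition used: TGI = concentration required for complete inhibition of growth.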
Key:
Assay in all cases: NCI anticancer screen, dose series, 384-well format
MDA-MB-468 breast = system: MDA-MB-468 breast
SW-620 colon = system: SW-620 colon
SK-MEL-28 melanoma = system: SK-MEL-28 melanoma
SF-539 CNS = system: SF-539 CNS
NCI-H226 lung = system: NCI-H226 lung
KM12 colon = system: KM12 colon
MDA-MB-435 melanoma = system: MDA-MB-435 melanoma
COLO 205 colon = system: COLO 205 colon
SF-268 CNS = system: SF-268 CNS
MDA-MB-231 breast = system: MDA-MB-231 breast
ACHN renal = system: ACHN renal
SF-295 CNS = system: SF-295 CNS
NCI-H460 NSCLC = system: NCI-H460 NSCLC
DU-145 prostate = system: DU-145 prostate
RXF 393 renal = system: RXF 393 renal
IGROV1 ovarian = system: IGROV1 ovarian
HOP-62 NSCLC = system: HOP-62 NSCLC
A498 renal = system: A498 renal
SK-MEL-5 melanoma = system: SK-MEL-5 melanoma
U251 glioblastoma = system: U251 glioblastoma
UACC-62 melanoma = system: UACC-62 melanoma
EKVX NSCLC = system: EKVX NSCLC
UACC-257 melanoma = system: UACC-257 melanoma
A549 NSCLC = system: A549 NSCLC
NCI/ADR-RES ovarian = system: NCI/ADR-RES ovarian
SK-OV-3 ovarian = system: SK-OV-3 ovarian
OVCAR-3 ovarian = system: OVCAR-3 ovarian
TK-10 renal = system: TK-10 renal
HCT-15 colon = system: HCT-15 colon
PC-3 prostate = system: PC-3 prostate
HT29 colon = system: HT29 colon
CCRF-CEM leukemia = system: CCRF-CEM leukemia
NCI-H522 lung = system: NCI-H522 lung
HL-60(TB) leukemia = system: HL-60(TB) leukemia
SK-MEL-2 melanoma = system: SK-MEL-2 melanoma
BT-549 breast = system: BT-549 breast
T-47D breast = system: T-47D breast
HOP-92 NSCLC = system: HOP-92 NSCLC
OVCAR-5 ovarian = system: OVCAR-5 ovarian
SR leukemia = system: SR leukemia
UO-31 renal = system: UO-31 renal
SNB-19 CNS = system: SNB-19 CNS
OVCAR-8 ovarian = system: OVCAR-8 ovarian
MCF7 breast = system: MCF7 breast
SN12C renal = system: SN12C renal
K-562 leukemia = system: K-562 leukemia
M14 melanoma = system: M14 melanoma

C[C@H](N)C(=O)N1C[C@H](CCCB(O)O)[C@](N)(C(=O)O)C1
GI50 (MDA-MB-468 breast): > 100 µM
TGI (MDA-MB-468 breast): > 100 µM
GI50 (SW-620 colon): > 100 µM
TGI (SW-620 colon): > 100 µM
GI50 (SK-MEL-28 melanoma): > 100 µM
TGI (SK-MEL-28 melanoma): > 100 µM
GI50 (SF-539 CNS): > 100 µM
TGI (SF-539 CNS): > 100 µM
GI50 (NCI-H226 lung): > 100 µM
TGI (NCI-H226 lung): > 100 µM
GI50 (KM12 colon): > 100 µM
TGI (KM12 colon): > 100 µM
GI50 (MDA-MB-435 melanoma): > 100 µM
TGI (MDA-MB-435 melanoma): > 100 µM
GI50 (COLO 205 colon): > 92 µM
TGI (COLO 205 colon): > 100 µM
GI50 (SF-268 CNS): > 100 µM
TGI (SF-268 CNS): > 100 µM
GI50 (MDA-MB-231 breast): > 100 µM
TGI (MDA-MB-231 breast): > 100 µM
GI50 (ACHN renal): > 100 µM
TGI (ACHN renal): > 100 µM
GI50 (SF-295 CNS): > 100 µM
TGI (SF-295 CNS): > 100 µM
GI50 (NCI-H460 NSCLC): > 100 µM
TGI (NCI-H460 NSCLC): > 100 µM
GI50 (DU-145 prostate): > 100 µM
TGI (DU-145 prostate): > 100 µM
GI50 (RXF 393 renal): > 100 µM
TGI (RXF 393 renal): > 100 µM
GI50 (IGROV1 ovarian): > 100 µM
TGI (IGROV1 ovarian): > 100 µM
GI50 (HOP-62 NSCLC): > 100 µM
TGI (HOP-62 NSCLC): > 100 µM
GI50 (A498 renal): > 100 µM
TGI (A498 renal): > 100 µM
GI50 (SK-MEL-5 melanoma): > 100 µM
TGI (SK-MEL-5 melanoma): > 100 µM
GI50 (U251 glioblastoma): > 100 µM
TGI (U251 glioblastoma): > 100 µM
GI50 (UACC-62 melanoma): > 100 µM
TGI (UACC-62 melanoma): > 100 µM
GI50 (EKVX NSCLC): > 100 µM
TGI (EKVX NSCLC): > 100 µM
GI50 (UACC-257 melanoma): > 100 µM
TGI (UACC-257 melanoma): > 100 µM
GI50 (A549 NSCLC): > 100 µM
TGI (A549 NSCLC): > 100 µM
GI50 (NCI/ADR-RES ovarian): > 100 µM
TGI (NCI/ADR-RES ovarian): > 100 µM
GI50 (SK-OV-3 ovarian): > 100 µM
TGI (SK-OV-3 ovarian): > 100 µM
GI50 (OVCAR-3 ovarian): > 100 µM
TGI (OVCAR-3 ovarian): > 100 µM
GI50 (TK-10 renal): > 100 µM
TGI (TK-10 renal): > 100 µM
GI50 (HCT-15 colon): > 100 µM
TGI (HCT-15 colon): > 100 µM
GI50 (PC-3 prostate): > 100 µM
TGI (PC-3 prostate): > 100 µM
GI50 (HT29 colon): > 100 µM
TGI (HT29 colon): > 100 µM
GI50 (CCRF-CEM leukemia): > 100 µM
TGI (CCRF-CEM leukemia): > 100 µM
GI50 (NCI-H522 lung): > 100 µM
TGI (NCI-H522 lung): > 100 µM
GI50 (HL-60(TB) leukemia): > 87.2 µM
TGI (HL-60(TB) leukemia): > 100 µM
GI50 (SK-MEL-2 melanoma): > 100 µM
TGI (SK-MEL-2 melanoma): > 100 µM
GI50 (BT-549 breast): > 100 µM
TGI (BT-549 breast): > 100 µM
GI50 (T-47D breast): > 100 µM
TGI (T-47D breast): > 100 µM
GI50 (HOP-92 NSCLC): > 100 µM
TGI (HOP-92 NSCLC): > 100 µM
GI50 (OVCAR-5 ovarian): > 100 µM
TGI (OVCAR-5 ovarian): > 100 µM
GI50 (SR leukemia): > 100 µM
TGI (SR leukemia): > 100 µM
GI50 (UO-31 renal): > 100 µM
TGI (UO-31 renal): > 100 µM
GI50 (SNB-19 CNS): > 100 µM
TGI (SNB-19 CNS): > 100 µM
GI50 (OVCAR-8 ovarian): > 100 µM
TGI (OVCAR-8 ovarian): > 100 µM
GI50 (MCF7 breast): > 100 µM
TGI (MCF7 breast): > 100 µM
GI50 (SN12C renal): > 100 µM
TGI (SN12C renal): > 100 µM
GI50 (K-562 leukemia): > 100 µM
TGI (K-562 leukemia): > 100 µM
GI50 (M14 melanoma): > 86 µM
TGI (M14 melanoma): > 100 µM

From PubChem BioAssay (NCI)
